Columns and labels:
Experiment in all cases: fitness (endpoint OD595 vs no drug) (fraction); higher = more growth
[1] = test system: S. aureus DSM 20231
In short: (§1)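 Each well of a 384-well plate received 30 µl of culture at OD595 0.01, or 55 µl for S. pneumoniae. TSB, LB Lennox or CY served as media at 37 °C. OD595 was taken every 30 min for 14 h and corrected by subtracting the first reading. Fitness is the optical density at stationary-phase entry divided by the robust mean of no-drug controls, capped at 1.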

[2] = test system: S. pneumoniae D39V
In short: as §1

[3] = test system: S. aureus Newman
In short: as §1

[4] = test system: B. subtilis 168
In short: as §1

CC(=O)Oc1ccccc1C(=O)O [Acetylsalicylic acid] + N[C@@H]1CONC1=O [Cycloserine D]
[1], first compound 250 µg/mL
Settings | fitness
partner 0.375 µg/mL | 0.96
partner 0.75 µg/mL | 0.953
partner 1.5 µg/mL | 0.93

CN(C)c1cc(NC(=O)CNC(C)(C)C)c(O)c2c1C[C@H]1C[C@H]3[C@H](N(C)C)C(O)=C(C(N)=O)C(=O)[C@@]3(O)C(O)=C1C2=O [Tigecycline] + Cn1nnc(-c2ccc(-c3ccc(N4C[C@H](CO)OC4=O)cc3F)cn2)n1 [Tedizolid]
fitness
Settings | partner 0.03125 µg/mL | partner 0.0625 µg/mL | partner 0.125 µg/mL | partner 0.25 µg/mL | partner 0.5 µg/mL
[2], first compound 0.65 µg/mL | 0.923 | 0.934 | 0.81 | 0.653 | 0.379
[2], first compound 1.3 µg/mL | 0.911 | 0.903 | 0.791 | 0.658 | 0.353
[2], first compound 2.6 µg/mL | 0.884 | 0.943 | 0.827 | 0.669 | 0.375
[3], first compound 0.039 µg/mL | – | 0.972 | – | – | –
[3], first compound 0.078 µg/mL | – | 0.941 | 0.844 | 0.469 | –
[3], first compound 0.156 µg/mL | – | 0.965 | – | 0.466 | –

C[C@@H]1O[C@@H]1P(=O)(O)O [Fosfomycin] + CC1=C(C(=O)O)N2C(=O)[C@@H](NC(=O)[C@H](N)c3ccccc3)[C@H]2SC1 [Cephalexin]
fitness, one replicate
Settings | first compound 1.25 µg/mL | first compound 1.562 µg/mL | first compound 2.5 µg/mL | first compound 3.124 µg/mL | first compound 5 µg/mL | first compound 6.248 µg/mL
[2], partner 0.125 µg/mL | 0.937 | – | 0.879 | – | 0.713 | –
[2], partner 0.25 µg/mL | 0.933 | – | 0.847 | – | 0.762 | –
[2], partner 0.5 µg/mL | 0.899 | – | 0.847 | – | 0.751 | –
[4], partner 1 µg/mL | – | 0.797 | – | 0.673 | – | 0.542

Settings | fitness
[2], first compound 1.25 µg/mL, partner 1 µg/mL | 0.768
[2], first compound 1.25 µg/mL, partner 2 µg/mL | 0.212
[2], first compound 1.25 µg/mL, partner 4 µg/mL | 0.0339
[2], first compound 2.5 µg/mL, partner 2 µg/mL | 0.191
[2], first compound 2.5 µg/mL, partner 4 µg/mL | 0.0402
[2], first compound 5 µg/mL, partner 2 µg/mL | 0.0752
[2], first compound 5 µg/mL, partner 4 µg/mL | 0.0499
[3], first compound 0.781 µg/mL, partner 0.25 µg/mL | 0.677
[3], first compound 0.781 µg/mL, partner 0.5 µg/mL | 0.662
[3], first compound 0.781 µg/mL, partner 1 µg/mL | 0.685
[3], first compound 1.562 µg/mL, partner 0.25 µg/mL | 0.604
[3], first compound 1.562 µg/mL, partner 0.5 µg/mL | 0.561
[3], first compound 1.562 µg/mL, partner 1 µg/mL | 0.616
[3], first compound 3.124 µg/mL, partner 0.25 µg/mL | 0.309
[3], first compound 3.124 µg/mL, partner 0.5 µg/mL | 0.286
[3], first compound 3.124 µg/mL, partner 1 µg/mL | 0.284
[4], first compound 1.562 µg/mL, partner 0.125 µg/mL | 0.66
[4], first compound 1.562 µg/mL, partner 0.25 µg/mL | 0.776
[4], first compound 1.562 µg/mL, partner 0.5 µg/mL | 0.774
[4], first compound 3.124 µg/mL, partner 0.125 µg/mL | 0.573
[4], first compound 3.124 µg/mL, partner 0.25 µg/mL | 0.656
[4], first compound 3.124 µg/mL, partner 0.5 µg/mL | 0.611
[4], first compound 6.248 µg/mL, partner 0.125 µg/mL | 0.404
[4], first compound 6.248 µg/mL, partner 0.25 µg/mL | 0.396
[4], first compound 6.248 µg/mL, partner 0.5 µg/mL | 0.373

CN(C)[C@@H]1C(O)=C(C(N)=O)C(=O)[C@@]2(O)C(O)=C3C(=O)c4c(O)ccc(Cl)c4[C@@](C)(O)[C@H]3C[C@@H]12 [Chlortetracycline] + CCCCCCCCCC(=O)N[C@@H]1[C@H]([C@@H]([C@H](O[C@H]1OC2=C3C=C4C=C2OC5=C(C=C(C=C5)[C@H]([C@H]6C(=O)N[C@@H](C7=C(C(=CC(=C7)O)OC8[C@H]([C@H]([C@@H]([C@H](O8)CO)O)O)O)C9=C(C=CC(=C9)[C@H](C(=O)N6)NC(=O)[C@@H]4NC(=O)[C@@H]1C2=CC(=CC(=C2)OC2=C(C=CC(=C2)[C@H](C(=O)N[C@H](CC2=CC(=C(O3)C=C2)Cl)C(=O)N1)N)O)O)O)C(=O)O)O[C@H]1[C@@H]([C@H]([C@@H]([C@H](O1)CO)O)O)NC(=O)C)Cl)CO)O)O [Teicoplanin]
[1], first compound 0.006 µg/mL, one replicate, main component drawn
Settings | fitness
partner 0.1562 µg/mL | 0.707
partner 0.3125 µg/mL | 0.905
partner 0.625 µg/mL | 0.997

fitness, [1], main component drawn
Settings | partner 0.1562 µg/mL | partner 0.3125 µg/mL | partner 0.625 µg/mL
first compound 0.012 µg/mL | 0.656 | – | 0.756
first compound 0.048 µg/mL | 0.0926 | 0.0866 | 0.0794

CC1(C)S[C@@H]2[C@H](NC(=O)Cc3ccccc3)C(=O)N2[C@H]1C(=O)O [Penicillin G] + CN[C@H](CC(C)C)C(=O)N[C@H]1C(=O)N[C@@H](CC(N)=O)C(=O)N[C@H]2C(=O)N[C@H]3C(=O)N[C@H](C(=O)N[C@H](C(=O)O)c4cc(O)cc(O)c4-c4cc3ccc4O)[C@H](O)c3ccc(c(Cl)c3)Oc3cc2cc(c3O[C@@H]2O[C@H](CO)[C@@H](O)[C@H](O)[C@H]2O[C@H]2C[C@](C)(N)[C@H](O)[C@H](C)O2)Oc2ccc(cc2Cl)[C@H]1O [Vancomycin]
fitness, [3]
Settings | first compound 0.0195 µg/mL | first compound 0.039 µg/mL | first compound 0.078 µg/mL
partner 0.1875 µg/mL | 0.895 | 0.885 | 0.907
partner 0.375 µg/mL | 0.918 | – | 0.926
partner 0.75 µg/mL | 0.884 | – | 0.88

O=C(O)c1cn(C2CC2)c2cc(N3CCNCC3)c(F)cc2c1=O [Ciprofloxacin] + CO/N=C(\C(=O)N[C@@H]1C(=O)N2C(C(=O)O)=C(COC(N)=O)CS[C@H]12)c1ccco1 [Cefuroxime]
fitness, one replicate
Settings | partner 0.04875 µg/mL | partner 0.0975 µg/mL | partner 0.195 µg/mL | partner 0.39 µg/mL | partner 0.78 µg/mL | partner 1.562 µg/mL | partner 3.125 µg/mL | partner 6.25 µg/mL
[3], first compound 0.078 µg/mL | 0.554 | 0.441 | 0.469 | – | – | – | – | –
[3], first compound 0.156 µg/mL | 0.0634 | 0.0619 | 0.0412 | – | – | – | – | –
[3], first compound 0.312 µg/mL | 0.0573 | 0.0666 | 0.061 | – | – | – | – | –
[4], first compound 0.0098 µg/mL | – | – | – | 0.266 | 0.224 | 0.24 | 0.179 | 0.0609
[4], first compound 0.0195 µg/mL | – | – | – | 0.0291 | 0.0398 | 0.0343 | 0.0254 | 0.0167
[4], first compound 0.039 µg/mL | – | – | – | 0.0168 | 0.0177 | 0.0261 | 0.0302 | 0.0254

fitness, [4]
Settings | first compound 0.0098 µg/mL | first compound 0.0195 µg/mL | first compound 0.039 µg/mL
partner 0.04875 µg/mL | 0.632 | 0.391 | 0.042
partner 0.0975 µg/mL | – | 0.212 | 0.0421
partner 0.195 µg/mL | 0.317 | 0.0634 | 0.0359

Reference: the supplement of paper PMC10627819
